Experiments:
Test in all cases: relative viability (nuclei count vs DMSO), 5 days (fraction); higher = more cells survive
Afatinib + Trametinib = compound: CN(C)C/C=C/C(=O)Nc1cc2c(Nc3ccc(F)c(Cl)c3)ncnc2cc1O[C@H]1CCOC1 [Afatinib] + CC(=O)Nc1cccc(-n2c(=O)n(C3CC3)c(=O)c3c(Nc4ccc(I)cc4F)n(C)c(=O)c(C)c32)c1 [Trametinib] (partner 0.02 µM)
Procedure, shortened: (§1)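 Values are medians from duplicate plates. Each reflects relative viability, defined as the nuclei count of treated wells over that of vehicle wells. Lung cancer cell lines in 1536-well plates were pin-tool dosed one day after seeding with one drug alone or with a fixed anchor-drug dose plus five library-drug doses (not always all listed) in √10 steps, then fixed, stained and imaged at 4× after 5 days.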

Afatinib + OSI-027 = compound: CN(C)C/C=C/C(=O)Nc1cc2c(Nc3ccc(F)c(Cl)c3)ncnc2cc1O[C@H]1CCOC1 [Afatinib] + COc1cccc2cc(-c3nc([C@H]4CC[C@H](C(=O)O)CC4)n4ncnc(N)c34)[nH]c12 [OSI-027] (partner 0.5 µM)
Procedure, shortened: as §1

Afatinib + Phenformin = compound: CN(C)C/C=C/C(=O)Nc1cc2c(Nc3ccc(F)c(Cl)c3)ncnc2cc1O[C@H]1CCOC1 [Afatinib] + N=C(N)NC(=N)NCCc1ccccc1 [Phenformin] (partner 250 µM)
Procedure, shortened: as §1

Afatinib + Crizotinib = compound: CN(C)C/C=C/C(=O)Nc1cc2c(Nc3ccc(F)c(Cl)c3)ncnc2cc1O[C@H]1CCOC1 [Afatinib] + C[C@@H](Oc1cc(-c2cnn(C3CCNCC3)c2)cnc1N)c1c(Cl)ccc(F)c1Cl [Crizotinib] (partner 1 µM)
Procedure, shortened: as §1

Cell Line	relative viability (Afatinib + Trametinib; first compound 0.005 µM)	relative viability (Afatinib + Trametinib; first compound 0.01581 µM)	relative viability (Afatinib + Trametinib; first compound 0.05 µM)	relative viability (Afatinib + Trametinib; first compound 0.1581 µM)	relative viability (Afatinib + Trametinib; first compound 0.5 µM)	relative viability (Afatinib + OSI-027; first compound 0.005 µM)	relative viability (Afatinib + OSI-027; first compound 0.01581 µM)	relative viability (Afatinib + OSI-027; first compound 0.05 µM)	relative viability (Afatinib + OSI-027; first compound 0.1581 µM)	relative viability (Afatinib + OSI-027; first compound 0.5 µM)	relative viability (Afatinib + Phenformin; first compound 0.005 µM)	relative viability (Afatinib + Phenformin; first compound 0.01581 µM)	relative viability (Afatinib + Phenformin; first compound 0.05 µM)	relative viability (Afatinib + Phenformin; first compound 0.1581 µM)	relative viability (Afatinib + Phenformin; first compound 0.5 µM)	relative viability (Afatinib + Crizotinib; first compound 0.005 µM)	relative viability (Afatinib + Crizotinib; first compound 0.01581 µM)	relative viability (Afatinib + Crizotinib; first compound 0.05 µM)	relative viability (Afatinib + Crizotinib; first compound 0.1581 µM)	relative viability (Afatinib + Crizotinib; first compound 0.5 µM)
NCI-H2023	0.527	0.505	0.489	0.398	0.393	0.38	0.354	0.394	0.351	0.279	0.436	0.382	0.412	0.291	0.375	0.576	0.487	0.407	0.402	0.487
NCI-H2085	0.433	0.507	0.692	0.513	0.457	0.71	0.61	0.541	0.366	0.366	0.614	0.629	0.606	0.509	0.542	0.925	0.657	0.763	0.66	0.778
NCI-H2087	0.223	0.147	0.183	0.117	0.15	0.731	0.507	0.652	0.753	0.383	0.454	0.475	0.446	0.446	0.373	0.985	0.933	0.93	0.845	1.02
NCI-H2126	0.529	0.585	0.493	0.462	0.459	0.732	0.641	0.547	0.494	0.415	0.584	0.509	0.485	0.434	0.483	1.09	0.989	1.02	0.884	0.79
NCI-H2170	0.892	0.853	0.615	0.169	0.156	0.67	0.5	0.293	0.192	0.191	0.368	0.383	0.335	0.216	0.208	1.07	0.822	0.534	0.25	0.286
NCI-H2228	0.833	0.395	0.544	0.467	0.466	0.546	0.418	0.589	0.638	0.545	0.279	0.273	0.31	0.257	0.242	0.455	0.46	0.345	–	0.34
NCI-H2347	0.27	0.292	0.277	0.275	0.283	0.403	0.46	0.393	0.364	0.373	0.357	0.456	0.31	0.381	0.415	0.828	0.937	0.657	0.607	0.724
NCI-H2405	0.597	0.482	0.529	0.537	0.594	0.65	0.67	0.712	0.603	0.701	0.339	0.413	0.435	0.363	0.392	0.753	0.86	0.835	0.811	0.819

Reference: the supplement of paper PMC10307832
